From patent US10028942B2 (priority 2013, dated 2018)

The compounds below were run against T1, DLK (Homo sapiens, UniProt Q12852) (assay: not given). Conditions: read-out: DLK (Ki) μM; TR-FRET; 5 nM GST-tagged DLK (catalytic domain aa 1-520), 40 nM HIS-MKK4 K131M substrate, 30 μM ATP, 60 minutes.
T1 sequence (Q12852 1-520): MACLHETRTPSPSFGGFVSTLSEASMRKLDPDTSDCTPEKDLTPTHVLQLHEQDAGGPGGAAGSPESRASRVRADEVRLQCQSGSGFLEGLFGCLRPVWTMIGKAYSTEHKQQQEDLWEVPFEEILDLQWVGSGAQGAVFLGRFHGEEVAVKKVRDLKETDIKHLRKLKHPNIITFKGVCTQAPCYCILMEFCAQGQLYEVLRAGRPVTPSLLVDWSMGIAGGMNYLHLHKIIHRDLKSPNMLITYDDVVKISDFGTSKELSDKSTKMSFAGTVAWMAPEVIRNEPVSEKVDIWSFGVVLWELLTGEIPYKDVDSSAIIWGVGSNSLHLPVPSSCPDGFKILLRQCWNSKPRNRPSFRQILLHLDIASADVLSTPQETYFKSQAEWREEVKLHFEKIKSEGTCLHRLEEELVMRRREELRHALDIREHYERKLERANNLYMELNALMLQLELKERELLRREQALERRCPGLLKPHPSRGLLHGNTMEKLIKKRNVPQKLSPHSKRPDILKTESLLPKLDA

**Q.** Which Ki does the source give for CC(C)(C)n1nc(-c2cnc(N)c(C(F)(F)F)c2)cc1[C@H]1[C@@H]2CN(C3COC3)C[C@@H]21 [Compound 167, 5-(1-(tert-butyl)-5-((1R,5S,6r)-3-(oxe-tan-3-yl)-3-azabicyclo[3.1.0]hexan-6-yl)-1H-pyrazol-3-yl)-3-(trifluorometh-yl)pyridin-2-amine] here?
**A.** 0.027 µM

**Q.** How did the Ki turn out when CC(C)n1nc(-c2cnc(N)c(C(F)F)c2)cc1[C@H]1[C@@H]2CN(C3COC3)C[C@@H]21 [Compound 158, 3-(difluoromethyl)-5-(1-isopropyl-5-((1R,5S,6r)-3-(oxetan-3-yl)-3-azabi-cyclo[3.1.0]hexan-6-yl)-1H-pyrazol-3-yl)pyridin-2-amine] was run?
**A.** 0.035 µM

**Q.** With CC(C)n1nc(-c2cnc3[nH]cc(C(F)(F)F)c3c2)cc1C1CN(C2COC2)C1 [Compound 54, 5-(1-isopropyl-5-(1-(oxetan-3-yl)aze-tidin-3-yl)-1H-pyrazol-3-yl)-3-(trifluoro-methyl)-1H-pyrrolo[2,3-b]pyridine] as the compound, how does the Ki read?
**A.** 0.00048 µM

**Q.** With N#Cc1cc(-c2cc([C@H]3[C@@H]4CN(CC(F)(F)F)C[C@@H]43)n(CC3CC3)n2)cnc1N [Compound 113, 2-amino-5-(1-(cyclopropylmethyl)-5-((1R,5S,6r)-3-(2,2,2-trifluoroethyl)-3-azabicyclo[3.1.0]hexan-6-yl)-1H-pyrazol-3-yl)nicotinonitrile] as the compound, how does the Ki read?
**A.** 0.064 µM

**Q.** For Nc1ncc(-c2cc([C@H]3[C@@H]4CN(C5COC5)C[C@@H]43)n(C3CC3)n2)cc1C(F)F [Compound 170, 5-(1-cyclopropyl-5-((1R,5S,6r)-3-(oxe-tan-3-yl)-3-azabicyclo[3.1.0]hexan-6-yl)-1H-pyrazol-3-yl)-3-(difluoro-methyl)pyridin-2-amine], which Ki is on record?
**A.** 0.012 µM

**Q.** How did the Ki turn out when FC(F)(F)c1c[nH]c2ncc(-c3cc(C4CCOC4)n(C4CCOC4)n3)cc12 (centres unmarked) [Compound 15, 5-(1,5-bis(tetrahydrofuran-3-yl)-1H-pyrazol-3-yl)-3-(trifluoromethyl)-1H-pyrrolo[2,3-b]pyridine] was run?
**A.** 0.035 µM

**Q.** Which Ki does the source give for FC1(F)CCC(n2nc(-c3cnc4[nH]cc(C(F)(F)F)c4c3)cc2C2CCOC2)C1 (centres unmarked) [Compound 16, 5-(1-(3,3-difluorocyclopentyl)-5-(tetrahydrofuran-3-yl)-1H-pyrazol-3-yl)-3-(trifluoromethyl)-1H-pyrrolo[2,3-b]pyridine] here?
**A.** 0.013 µM

**Q.** Which Ki does the source give for COCC(C)N1C[C@@H]2[C@H](C1)[C@H]2c1cc(-c2cnc(N)c(C(F)(F)F)c2)nn1C(C)C (stereo partly drawn) [Compound 129, 5-(1-isopropyl-5-((1R,5S,6r)-3-(1-meth-oxypropan-2-yl)-3-azabicyclo[3.1.0]hexan-6-yl)-1H-pyrazol-3-yl)-3-(trifluoromethyl)pyridin-2-amine] here?
**A.** 0.0013 µM

**Q.** With Nc1ncc(-c2cc([C@H]3[C@@H]4CN(C5COC5)C[C@@H]43)n(CC3CCC3)n2)cc1C1CC1 [Compound 162, 5-(1-(cyclobutylmethyl)-5-((1R,5S,6r)-3-(oxetan-3-yl)-3-azabicyclo[3.1.0]hexan-6-yl)-1H-pyrazol-3-yl)-3-cyclopropylpyridin-2-amine] as the compound, how does the Ki read?
**A.** 0.066 µM

**Q.** COCCN1C[C@@H]2[C@H](C1)[C@H]2c1cc(-c2cnc(N)c(C(F)(F)F)c2)nn1C(C)C [Compound 117, 5-(1-isopropyl-5-((1R,5 S,6r)-3-(2-methoxyethyl)-3-azabicyclo[3.1.0]hexan-6-yl)-1H-pyrazol-3-yl)-3-(trifluoromethyl)pyridin-2-amine] was tested. Which Ki did it give?
**A.** 0.0094 µM

**Q.** How did the Ki turn out when Nc1ncc(-c2cc(C3CCOC3)n(C3CC(F)(F)C3)n2)cc1Cl (centres unmarked) [Compound 25, 3-chloro-5-(1-(3,3-difluorocyclobut-yl)-5-(tetrahydrofuran-3-yl)-1H-pyra-zol-3-yl)pyridin-2-amine] was run?
**A.** 0.55 µM

**Q.** For CC(C)n1nc(-c2cnc(N)c(C3CC3)c2)cc1[C@H]1[C@@H]2CN(C3COC3)C[C@@H]21 [Compound 142, 3-cyclopropyl-5-(1-isopropyl-5-((1R,5S,6r)-3-(oxetan-3-yl)-3-azabicyclo [3.1.0]hexan-6-yl)-1H-pyrazol-3-yl) pyridin-2-amine], which Ki is on record?
**A.** 0.022 µM

**Q.** Which Ki does the source give for COCCN1C[C@@H]2[C@H](C1)[C@H]2c1cc(-c2cnc(N)c(Cl)c2)nn1CC1CC1 [Compound 123, 3-chloro-5-(1-(cyclopropylmethyl)-5-((1R,5S,6r)-3-(2-methoxyethyl)-3-aza-bicyclo[3.1.0]hexan-6-yl)-1H-pyra-zol-3-yl)pyridin-2-amine] here?
**A.** 0.027 µM

**Q.** Nc1ncc(-c2cc([C@H]3[C@@H]4CN(C5COC5)C[C@@H]43)n(C3CCCC3)n2)cc1OC(F)(F)F [Compound 166, 5-(1-cyclopentyl-5-((1R,5S,6r)-3-(oxe-tan-3-yl)-3-azabicyclo[3.1.0]hexan-6-yl)-1H-pyrazol-3-yl)-3-(trifluoro-methoxy)pyridin-2-amine] was tested. Which Ki did it give?
**A.** 0.0047 µM

**Q.** Which Ki does the source give for CC(C)n1nc(-c2cnc3[nH]cc(C(F)(F)F)c3c2)cc1C1CCN(C)CC1 [Compound 40, 5-(1-isopropyl-5-(1-methylpiperidin-4-yl)-1H-pyrazol-3-yl)-3-(trifluoro-methyl)-1H-pyrrolo[2,3-b]pyridine] here?
**A.** 0.00017 µM

**Q.** How did the Ki turn out when CC(CC#N)N1C[C@@H]2[C@H](C1)[C@H]2c1cc(-c2cnc(N)c(C(F)(F)F)c2)nn1C(C)C (stereo partly drawn) [Compound 131, 3-((1R,5S,6r)-6-(3-(6-amino-5-(trifluoro-methyl)pyridin-3-yl)-1-isopropyl-1H-pyrazol-5-yl)-3-azabicyclo[3.1.0]hexan-3-yl)butanenitrile] was run?
**A.** 0.0044 µM

**Q.** Nc1ncc(-c2cc(C3CCOCC3)n(C3CC(F)(F)C3)n2)cc1Cl [Compound 39, 3-chloro-5-(1-(3,3-difluorocyclobut-yl)-5-(tetrahydro-2H-pyran-4-yl)-1H-pyrazol-3-yl)pyridin-2-amine] was tested. Which Ki did it give?
**A.** 0.46 µM

**Q.** With CC(C)n1nc(-c2cnc3[nH]cc(C#N)c3c2)cc1C1CCN(CC(F)(F)F)CC1 [Compound 46, 5-(1-isopropyl-5-(1-(2,2,2-trifluoroethyl)piperidin-4-yl)-1H-pyrazol-3-yl)-1H-pyrrolo[2,3-b]pyridine-3-carbonitrile] as the compound, how does the Ki read?
**A.** 0.028 µM

**Q.** For Cc1c[nH]c2ncc(-c3cc(C4CCOC4)n(C4CC(F)(F)C4)n3)cc12 (centres unmarked) [Compound 19, 5-(1-(3,3-difluorocyclobutyl)-5-(tetrahydrofuran-3-yl)-1H-pyrazol-3-yl)-3-methyl-1H-pyrrolo[2,3-b]pyridine], which Ki is on record?
**A.** 0.082 µM

**Q.** CC(=O)N1C[C@@H]2[C@H](C1)[C@H]2c1cc(-c2cnc(N)c(C(F)(F)F)c2)nn1C(C)C [Compound 115, 1-((1R,5S,6r)-6-(3-(6-amino-5-(trifluoro-methyl)pyridin-3-yl)-1-isopropyl-1H-pyrazol-5-yl)-3-azabicyclo[3.1.0]hexan-3-yl)ethanone] was tested. Which Ki did it give?
**A.** 0.0056 µM

**Q.** How did the Ki turn out when Nc1ncc(-c2cc([C@H]3[C@@H]4CN(C5COC5)C[C@@H]43)n(CC3CCC3)n2)cc1OC(F)F [Compound 164, 5-(1-(cyclobutylmethyl)-5-((1R,5S,6r)-3-(oxetan-3-yl)-3-azabicyclo[3.1.0]hexan-6-yl)-1H-pyrazol-3-yl)-3-(di-fluoromethoxy)pyridin-2-amine] was run?
**A.** 0.013 µM

**Q.** With CC1(Cn2nc(-c3cnc(N)c(C(F)(F)F)c3)cc2[C@H]2[C@@H]3CN(C4COC4)C[C@@H]32)CC1 [Compound 177, 5-(1-((1-methylcyclopropyl)methyl)-5-((1R,5S,6r)-3-(oxetan-3-yl)-3-aza-bicyclo[3.1.0]hexan-6-yl)-1H-pyrazol-3-yl)-3-(trifluoromethyl)pyridin-2-amine] as the compound, how does the Ki read?
**A.** 0.00067 µM

**Q.** Nc1ncc(-c2cc([C@H]3[C@@H]4CNC[C@@H]43)n(CC(F)(F)F)n2)cc1C(F)(F)F [Compound 107, 5-(5-((1R,5S,6r)-3-azabicyclo[3.1.0]hexan-6-yl)-1-(2,2,2-trifluoroethyl)-1H-pyrazol-3-yl)-3-(trifluoromethyl) pyridin-2-amine] was tested. Which Ki did it give?
**A.** 0.0024 µM

**Q.** Nc1ncc(-c2cc([C@H]3[C@@H]4CN(C5COC5)C[C@@H]43)n(C3CC3)n2)cc1C(F)(F)F [Compound 168, 5-(1-cyclopropyl-5-((1R,5S,6r)-3-(oxe-tan-3-yl)-3-azabicyclo[3.1.0]hexan-6-yl)-1H-pyrazol-3-yl)-3-(trifluoro-methyl)pyridin-2-amine] was tested. Which Ki did it give?
**A.** 0.0047 µM

The compounds below were run against T1, DLK (assay: biochemical). Conditions: not given.

**Q.** How did the Ki turn out when CC(C)n1nc(-c2cnc3[nH]cnc3c2)cc1C1CN(C2COC2)C1 [Compound 62, 6-(1-isopropyl-5-(1-(oxetan-3-yl)aze-tidin-3-yl)-1H-pyrazol-3-yl)-3H-imi-dazo[4,5-b]pyridine] was run?
**A.** > 1 µM

**Q.** Which Ki does the source give for CC(C)n1nc(-c2cnc3c(c2)OCCN3)cc1C1CCN(C2COC2)CC1 [Compound 94, 7-(1-isopropyl-5-(1-(oxetan-3-yl)pipe-ridin-4-yl)-1H-pyrazol-3-yl)-3,4-di-hydro-2H-pyrido[3,2-b][1,4]oxazine] here?
**A.** > 1 µM

**Q.** CC(C)n1nc(-c2cnc3[nH]cnc3c2)cc1C1CCN(C2COC2)CC1 [Compound 79, 6-(1-isopropyl-5-(1-(oxetan-3-yl)pipe-ridin-4-yl)-1H-pyrazol-3-yl)-3H-imi-dazo[4,5-b]pyridine] was tested. Which Ki did it give?
**A.** > 1 µM

**Q.** For COC1(c2cc(-c3cnc(N)c(C(F)(F)F)c3)nn2C(C)C)CCN(C2COC2)CC1 [Compound 103, 5-(1-isopropyl-5-(4-methoxy-1-(oxetan-3-yl)piperidin-4-yl)-1H-pyrazol-3-yl)-3-(trifluoromethyl)pyridin-2-amine], which Ki is on record?
**A.** > 1 µM

**Q.** CC1(Cn2nc(-c3cnc(N)c(Cl)c3)cc2[C@H]2[C@@H]3CN(CC(F)(F)F)C[C@@H]32)COC1 [Compound 112, 3-chloro-5-(1-((3-methyloxetan-3-yl)methyl)-5-((1R,5S,6r)-3-(2,2,2-trifluoro-ethyl)-3-azabicyclo[3.1.0]hexan-6-yl)-1H-pyrazol-3-yl)pyridin-2-amine] was tested. Which Ki did it give?
**A.** > 1 µM
